Measured values published in paper PMC6941357, “An in vitro toolbox to accelerate anti-malarial drug discovery and development” (Malaria Journal, 2020).
In brackets after ≈: the same amount, converted by molar mass. Several values for one entry are separate records, joined by “and”; a condition that tells them apart may be missing. Equal values may be shown once. Read-outs that look alike come from different tables or passages of the source.

Columns and labels:
[1] = Ionization constants by potentiometric titration; format: physicochemical; conditions: basic pKa (B), mean ± SD, n = 3 titrations
Method: The autotitrator was controlled by Tiamo software (Version 1.3). pH measurements were conducted using a Metrohm LL Micro glass electrode which was calibrated on the day of use with calibration standards at pH 2, 4, 7 and 10. All reagents were standardized (directly or indirectly) against potassium hydrogen phthalate (Sigma-Aldrich, A.C.S. Acidimetric Standard). Titrant solutions were protected from carbon dioxide absorption by flushing with nitrogen before sealing or by the incorporation of a drying tube filled with self-indicating soda lime into the titration reaction vessel set-up.
Aliquots were introduced directly into the titration vessel and diluted 1:10 with water (typical final compound concentration of 0.5 mM).

[2] = Octanol/pH 7.4 buffer partition coefficient, shake flask; conditions: for logD: pH 7.4
Method: Partition coefficients between octanol and pH 7.4 buffer were measured using a shake flask method. A stock solution of test compound in octanol was prepared at a concentration between 3 and 30 mg/mL based on the expected partition coefficient value. This stock solution was then diluted 3- and 10-fold with octanol and used to prepare the octanol phase for the partitioning experiments. Two different dilutions were used to confirm that there were no saturation effects. Phosphate buffered saline was prepared by combining 67 mM disodium hydrogen orthophosphate and sodium dihydrogen orthophosphate (both prepared in 43 mM NaCl) to a final pH of 7.4.
Partitioning experiments were conducted by mixing equal volumes of the octanol (containing test compound) and aqueous phases and placing on a vibrating plate mixer in an incubator at 37 °C. […] An aliquot of the aqueous phase was carefully removed and centrifuged again to ensure no contamination from the octanol phase before sampling in duplicate and diluting with aqueous methanol for analysis. Diluted samples were analysed by LC–MS along with calibration standards (Additional file 1: Table S2) and partition coefficients were calculated from the ratio of the mean octanol to buffer concentration after accounting for the dilution factors. The partitioning results for the two time points were used to confirm that the partitioning experiment had reached equilibrium.

[3] = Solubility in biorelevant media
Method: Solubility of each active pharmaceutical ingredient was evaluated at 37 °C in pH 7.4 phosphate buffered saline (prepared as described for the partitioning experiments), fasted (FaSSIF-V2) and fed (FeSSIF-V2) state simulated intestinal fluids and fasted state simulated gastric fluid (FaSSGF) as described by Jantratid et al.. […] Samples were vortexed and placed in a 37 °C incubator on an orbital mixer (IKA® VXR basic Vibrax® orbital mixer) set at 600 rpm. Sampling times were 1 h for FaSSGF or 5–6 h for FaSSIF-V2, FeSSIF-V2, and PBS. These times were used to reflect the maximal likely residence times within the stomach and small intestine, respectively. Sampling was carried out by centrifuging each sample at 10,000 rpm for 3 min, transferring 300 µL aliquots into fresh Eppendorf tubes and centrifuging these tubes again at 10,000 rpm for 3 min. Triplicate aliquots of the supernatant were then removed and diluted 1:2 in 50% aqueous methanol and then again in 50% aqueous acetonitrile to be within the analytical concentration range. Samples were analysed by LC–MS along with calibration standards (Additional file 1: Table S2).

Caco-2 cell monolayers [4] = experiment: Bidirectional permeability across Caco-2 cell monolayers; conditions: matrix: human plasma, corrected for fu
Method: (§1) Bidirectional permeability was assessed across Caco-2 cell monolayers as described previously. Briefly, permeability experiments were performed using either aqueous transport buffer (pH 7.4 Hanks balanced salt solution containing 20 mM HEPES) or human plasma (Australian Red Cross Blood Service) in both the apical and basolateral chambers. […] The final DMSO concentration in the donor solution was 0.1% v/v.
(§2) Samples from the donor chamber were taken at the start and end of the experiment. […] Donor and acceptor samples were stored frozen at − 80 °C until analysis by LC–MS (Additional file 1: Table S2) with sample preparation as described previously. The mass balance and apparent permeability coefficient (Papp) were calculated as previously described.
(§3) Where human plasma was used as the transport medium, Papp values were calculated as shown above, with correction for the fraction unbound (fu) in the donor solution Cdonorinitial×fu with fu determined at a similar concentration to that used in the transport experiment. The apparent flux of lucifer yellow was based on an endpoint measurement assuming no lag time. The efflux ratio was calculated as the ratio of the mean B–A to A–B Papp values.

physchem = conditions: for An (absorption number): Peff × tres/R, minimum 1; for Predicted human Peff: from Caco-2 Papp via calibration plot
Excerpt: Predicted Peff values were obtained from a calibration plot of literature Peff values vs measured Caco-2 Papp using either buffer or plasma as the transport medium (see Results section).

in vitro = conditions: human, microsomes
Method: (§4) The metabolic stability assay was adapted from a previously published method. […] Reactions were quenched at 2, 5, 15, 30 and 60 min by the addition of acetonitrile containing 150 ng/mL diazepam as internal standard. Control samples (containing no cofactor) were included (quenched at 2, 30 and 60 min) to monitor degradation in the absence of cofactor. Concentrations were determined by LC–MS (Additional file 1: Table S2) by comparison to the response for a single point calibration standard prepared in quenched microsomal matrix.
(§5) Test compound concentration versus time data were fit using an exponential decay function to determine the first-order rate constant for substrate depletion. Where deviation from first-order kinetics was evident, only the initial linear portion of the logarithmic profile was utilized to determine the initial degradation rate constant (k, min^−1). Each substrate depletion rate constant was then used to calculate the in vitro intrinsic clearance value (CLint, in vitro, µL/min/mg protein) using Eq.
(§6) Unbound in vitro CLint values were obtained by dividing the measured CLint by the measured fu in microsomes.

human liver microsomes [5] = conditions: microsomal protein 0.5 mg/mL; ref [23]–[28] of Additional file 1; cited from earlier work
[6] = Bidirectional permeability across Caco-2 cell monolayers; conditions: human
Method: as §1, §2, §3

[7] = human; cited from earlier work
[8] = Plasma protein binding via ultracentrifugation (UC); format: in vitro ADME, human; conditions: human, neat pooled plasma, pH 7.4; ultracentrifugation, neat plasma; read-out: Fraction unbound, human plasma
Method: (§7) Pooled human plasma (n = 3–4 donors) was obtained by centrifugation of blood (collected by the Australian Red Cross Blood Service, Melbourne, Australia or the Volunteer Blood Donor Registry, Clinical Translation Centre, Walter & Eliza Hall Institute of Medical Research, Parkville, Australia), or sourcing pooled plasma directly from commercial sources (Innovative Research Inc, MI) and stored frozen at − 80 °C.
(§8) An ultracentrifugation method adapted from a previous publication was initially used to assess plasma protein binding and binding in the other media. […] Additional ultracentrifuge tubes containing spiked matrix were maintained at 37 °C, 5% or 10% CO2 or normal atmosphere conditions, with aliquots being taken within 0.5 h of the start and at the end of ultracentrifugation to serve as controls for the assessment of stability and to obtain a measure of the total concentration (Ctotal). Following ultracentrifugation, the pH was checked and an aliquot of protein-free supernate was taken from each ultracentrifuge tube for determination of the unbound concentration (Cunbound).
(§9) Total matrix and protein free samples were analysed using a matrix matching approach whereby each sample was mixed in a 1:1 ratio with the opposite blank medium (i.e. blank total matrix or blank protein free buffer). For example, plasma samples were mixed with blank pH 7.4 buffer whereas plasma supernatant samples were mixed with blank plasma. Each of the sample sets were then assayed against a common calibration curve prepared in a 1:1 mixture of total matrix and protein free pH 7.4 buffer. […] The standard deviation for fu was calculated using the propagation of errors approach as described previously. The potential for compound degradation was assessed by comparing the average value for Ctotal at the start and end of the experiment.

[9] = Plasma protein binding via rapid equilibrium dialysis (RED), 10% plasma; format: in vitro ADME, human; conditions: human, 10% pooled plasma (diluted 1:10), pH 7.4, RED, 10% plasma corrected for dilution, 6 h dialysis
Method: as §7
Plasma was diluted 1:10 with pH 7.4 phosphate buffer (prepared by mixing 0.1 M sodium dihydrogen phosphate and 0.1 M disodium hydrogen phosphate (both containing 0.04 M NaCl) to pH 7.4) and spiked with compound to achieve a total measured concentration of ~ 1000–3000 ng/mL. Diluted plasma was vortex mixed briefly and aliquots (n = 3–4) were transferred to RED (Thermo Fisher Scientific, Waltham, MA) units that were placed at 37 °C under ambient atmosphere on a plate shaker. […] At the end of the dialysis period, samples were removed from both the donor and dialysate chambers of the RED units. […] Fraction unbound values were calculated for each individual RED unit and the mean and SD calculated for n = 3–4 replicates.
Briefly, the RED device was exposed for two 30 min periods and one overnight period to fresh solutions of compound prepared in pH 7.4 buffer at approximately 10% of the total dialysis concentration. Following the preincubations, solutions were removed from the RED device and discarded. […] Samples were removed and analysed as described above.
For binding assessments using 10% plasma, the unbound fraction (fu) in neat plasma was calculated using the average values for Ctotal and Cunbound and Eq.

[10] = biological target: T1, Albumax medium (lipid rich bovine serum albumin) (Bos taurus, UniProt P02769); experiment: Binding in Albumax medium via ultracentrifugation; format: in vitro ADME; conditions: bovine, Albumax medium, pH 7.4
T1 construct: purchased Gibco, Thermo Fisher Scientific
Method: as §8, §9

[11] = Binding to human liver microsomes via ultracentrifugation; format: in vitro ADME; conditions: human, liver microsomes, pH 7.4, 0.4 mg/mL protein, read-out: Fraction unbound, HLM
Method: A suspension of human liver microsomes (HLM, XenoTech LLC, Lenexa, KS, USA) was prepared in 0.1 M phosphate buffer (pH 7.4) at a protein concentration of 0.4 mg/mL immediately prior to the experiment.
as §8, §9

human liver microsomes [12] = experiment: in vitro; conditions: human, 1 µM, pH 7.4
Method: as §4, §5, §6

CYP3A4 = CYP3A4 (Homo sapiens, UniProt P08684); experiment: Cytochrome P450 inhibition in human liver microsomes; conditions: highest concentration tested 20 µM
Method: The CYP inhibition assay was based on a previous publication with minor modifications. The method uses human liver microsomes and a substrate-specific interaction approach which relies on the formation of a metabolite that is mediated by a specific CYP isoform. The specific CYP-mediated metabolic pathways, substrates, substrate Km values, positive control inhibitors and specific incubation conditions are shown in Additional file 1: Table S4. […] Samples were quenched by the addition of ice-cold acetonitrile containing diazepam as the analytical internal standard. Concentrations of the substrate-specific metabolites in quenched samples were determined by LC–MS (Additional file 1: Table S5) relative to calibration standards prepared in quenched microsomal matrix.
The inhibitory effect of each test compound and positive control inhibitor was based on the reduction in the formation of the specific CYP-mediated metabolite (represented as percent inhibition of enzyme activity) relative to metabolite formation in the absence of inhibitor (i.e. control for maximal enzyme activity). […] The Km was determined under the same incubation conditions by measuring the rate of metabolite formation (pmol/min/mg protein) as a function of substrate concentration (Additional file 1: Table S4).

Caco-2 cell monolayers [13] = conditions: cited from earlier work
human plasma = conditions: methods UF, ED, EP or not described per compound, ref [6]–[22] of Additional file 1; cited from earlier work
[14] = matrix: human plasma, corrected for fu

Chain of CYP3A4 (P08684 whole entry, canonical isoform): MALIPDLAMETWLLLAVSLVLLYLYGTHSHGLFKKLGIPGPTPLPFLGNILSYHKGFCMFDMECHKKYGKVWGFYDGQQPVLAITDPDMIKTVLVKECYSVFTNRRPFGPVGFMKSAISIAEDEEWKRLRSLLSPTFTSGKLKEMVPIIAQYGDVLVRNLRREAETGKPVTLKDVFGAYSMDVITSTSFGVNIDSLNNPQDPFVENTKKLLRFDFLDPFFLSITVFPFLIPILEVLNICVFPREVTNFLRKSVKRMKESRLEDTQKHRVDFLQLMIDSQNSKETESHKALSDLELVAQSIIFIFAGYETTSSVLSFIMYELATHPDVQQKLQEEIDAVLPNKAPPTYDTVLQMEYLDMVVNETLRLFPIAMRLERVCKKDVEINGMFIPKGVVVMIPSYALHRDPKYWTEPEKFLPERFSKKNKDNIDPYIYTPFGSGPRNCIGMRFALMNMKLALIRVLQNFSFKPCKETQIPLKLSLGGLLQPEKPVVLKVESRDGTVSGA
T1 sequence (P02769 25-607): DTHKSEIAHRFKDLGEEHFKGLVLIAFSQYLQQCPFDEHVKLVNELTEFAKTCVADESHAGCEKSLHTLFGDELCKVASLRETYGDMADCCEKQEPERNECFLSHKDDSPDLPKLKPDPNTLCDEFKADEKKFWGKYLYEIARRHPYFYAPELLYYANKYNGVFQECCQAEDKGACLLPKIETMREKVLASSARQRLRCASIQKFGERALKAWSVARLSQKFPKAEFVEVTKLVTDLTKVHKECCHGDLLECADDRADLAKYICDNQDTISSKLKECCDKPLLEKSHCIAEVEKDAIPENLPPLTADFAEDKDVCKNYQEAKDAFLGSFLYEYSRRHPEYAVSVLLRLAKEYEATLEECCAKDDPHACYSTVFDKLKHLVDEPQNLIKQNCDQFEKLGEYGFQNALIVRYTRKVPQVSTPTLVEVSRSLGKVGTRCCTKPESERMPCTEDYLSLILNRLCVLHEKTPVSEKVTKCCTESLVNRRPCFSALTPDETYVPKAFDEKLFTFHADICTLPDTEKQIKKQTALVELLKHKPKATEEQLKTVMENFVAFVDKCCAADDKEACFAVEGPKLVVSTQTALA

CC1(C)CC(O)(COc2ccc(C3CCC4(CC3)OOC3(O4)C4CC5CC(C4)CC3C5)cc2)CC(C)(C)N1 (stereo not drawn) [MMV052]
Measured pKa [1]: 8.3 ± 0.06 (B)
Measured Log D7.4 ([2]; octanol/pH 7.4 buffer, shake flask, 37 °C): 5.40
Solubility FaSSGF (1 h) ([3]; 37 °C): 13.0 µg/mL and 24.7 µM
Solubility FaSSIF-V2 (5–6 h) ([3]; 37 °C): 1140 µg/mL and 2170 µM
Solubility FeSSIF-V2 (5–6 h) ([3]; 37 °C): > 2000 µg/mL and > 3800 µM
Solubility PBS7.4 (5–6 h) ([3]; 37 °C): 49.6 µg/mL and 94.3 µM
A–B Papp (Caco-2 cell monolayers [4]): > 300 10^−6 cm/s
B–A Papp (Caco-2 cell monolayers [4]): > 300 10^−6 cm/s
SLAD (physchem): 7580 mg
An (absorption number) (physchem): 13
Ssi (estimated solubility in the small intestine) (physchem; based on measured FaSSIF solubility): 1140 µg/mL
Predicted human Peff (physchem): 11 10^−4 cm/s

CCOc1ccc(NC(C)=O)cc1 [phenacetin]
microsomal CLint at 1 µM (in vitro; pH 7.4, Mean CLint): 21.4 µL/min/mg
microsomal CLint at 1 µM (in vitro; pH 7.4, Range HLM CLint): 13.3 to 31.1 µL/min/mg
Literature CLint (human liver microsomes [5]): 27 µL/min/mg and 22.2 µL/min/mg

c1cc([C@H]2CC[C@]3(CC2)OO[C@]2(O3)C3CC4CC(C3)CC2C4)ccc1OCCN1CCOCC1 [OZ439]
logD ([2]; octanol/pH 7.4 phosphate buffered saline): > 5
FaSSGF solubility ([3]; FaSSGF): 79 µg/mL
solubility at 1 h ([3]; FaSSGF, 37 °C, fassgf or other biorelevant, thermodynamic from solid): 79 µg/mL and 168 µM
FaSSIF solubility ([3]; FaSSIF): 40.6 µg/mL
solubility ([3]; FaSSIF-V2, 37 °C, fassif, thermodynamic from solid): 40.6 µg/mL and 87 µM
solubility ([3]; FeSSIF-V2, 37 °C, fessif, thermodynamic from solid): 526 µg/mL and 1120 µM
solubility ([3]; phosphate buffered saline pH 7.4, 37 °C, pH 7.4, aqueous buffer, thermodynamic from solid): 0.085 µg/mL and 0.181 µM
Papp B→A ([6]; Caco-2): > 300 ×10⁻⁶ cm/s
Papp A→B ([6]; Caco-2, A–B Papp, matrix: human plasma, corrected for fu): > 300 ×10⁻⁶ cm/s
solubility (physchem; FaSSIF): 40.6 µg/mL (≈ 86.5 µM)
An (absorption number) (physchem): 13
SLAD (physchem; Ssi × V (500 mL) × Mp): 270 mg
Predicted human Peff (physchem): 11 10^−4 cm/s
Food effect [7]: yes
V/F [7]: 1570 L

CCN(CC)Cc1cc(Nc2ccnc3cc(Cl)ccc23)ccc1O [Amodiaquine]
pKa ([1]; aqueous solution (DMSO stock diluted 1:10 with water), read-out: Measured pKa): 7 ± 0.02
logD ([2]; octanol/pH 7.4 buffer): 2.95
fraction unbound at […] [8]: 0.089 ± 0.008
fraction unbound at 6 h [9]: 0.086
fraction unbound at […], 500 ng/mL [10]: 0.67 ± 0.033
fraction unbound at […] [11]: 0.91 ± 0.094
microsomal CLint at 1 µM (in vitro; pH 7.4, HLM CLint): 308 µL/min/mg
Unbound CLint (human liver microsomes [12]): 339 µL/min/mg
IC50 (CYP3A4; CYP3A4 (midaz) IC50, human liver microsomes, CYP3A4 (midaz)): > 20 µM
IC50 (CYP3A4; CYP3A4 (test) IC50, human liver microsomes, CYP3A4 (test)): > 20 µM
Literature ER (Caco-2 cell monolayers [13]; Caco-2, ref [33], [35] of Additional file 1): 1.3
Literature Papp (Caco-2 cell monolayers [13]; Caco-2 A-B, ref [33]–[35] of Additional file 1): 16.0 ± 1.1 10-6 cm/sec
A–B Papp (Caco-2 cell monolayers [13]; [14]): 90 ± 8.3 10^−6 cm/s
B–A Papp (Caco-2 cell monolayers [13]; [14]): 63 ± 9.6 10^−6 cm/s
Literature fu (human plasma): < 0.1
